Measurements: article PMC6536496, “Modulation of antibiotic sensitivity and biofilm formation in Pseudomonas aeruginosa by interspecies signal analogues” (Nature Communications, 2019)

Target: T1, PA1396 (Pseudomonas aeruginosa, UniProt Q9I3U8)
T1 construct: reporter rows: PA1396 in P. aeruginosa cells
Experiment: auto-phosphorylation in liposomes, […] SDS-PAGE
Type: biochemical
Settings: 10 mM MgCl2, 1 mM DTT, room temperature, 10 min

T1 sequence (Q9I3U8 entry or part of it): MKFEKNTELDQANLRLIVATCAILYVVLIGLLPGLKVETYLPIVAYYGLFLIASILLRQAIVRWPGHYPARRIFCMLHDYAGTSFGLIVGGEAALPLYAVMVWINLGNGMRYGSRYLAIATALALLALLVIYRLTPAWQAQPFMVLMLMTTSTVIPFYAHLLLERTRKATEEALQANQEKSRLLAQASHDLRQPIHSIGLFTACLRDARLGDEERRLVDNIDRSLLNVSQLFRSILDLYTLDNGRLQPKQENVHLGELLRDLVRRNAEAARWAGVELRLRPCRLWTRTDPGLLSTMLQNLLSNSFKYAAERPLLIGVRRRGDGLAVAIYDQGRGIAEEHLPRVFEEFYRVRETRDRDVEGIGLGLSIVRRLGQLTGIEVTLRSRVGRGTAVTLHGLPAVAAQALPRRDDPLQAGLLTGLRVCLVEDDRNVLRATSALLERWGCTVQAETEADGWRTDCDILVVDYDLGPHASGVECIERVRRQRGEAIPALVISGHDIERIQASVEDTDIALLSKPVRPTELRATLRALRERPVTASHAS

SMILES | auto-phosphorylation in liposomes, 32P SDS-PAGE (agonist, 10 µM) | auto-phosphorylation in liposomes, 32P SDS-PAGE (antagonist against 10 µM DSF)
CC(C)CCCCCCC/C=C\C(=O)O [C1, cis-11-methyl-2-dodecenoic acid] | addition of DSF to PA1396-loaded liposomes led to a robust increase in the level | 
CC(C)CCCCCCC/C=C\C(=O)NS(C)(=O)=O [C23, (Z)-11-methyl-N-(methylsulfonyl)dodec-2-enamide] |  | C23 blocks the recognition of DSF by PA1396
